According to ChEMBL document CHEMBL1158722, “Umbelactonyl cinnamate derivatives from Crypteronia paniculata that mediate DNA strand scission” (J Nat Prod, 2005):
Activity calls are given as the source filed them. No cut-off for these calls is given here.

Legend:
Escherichia coli [1] = assay: Induction of Cu2+-dependent DNA cleavage in pSP64 DNA assessed as form 2 DNA formation at 1 uM
Escherichia coli [2] = assay: Induction of Cu2+-dependent DNA cleavage in pSP64 DNA assessed as form 2 DNA formation at 10 uM
Escherichia coli [3] = assay: Induction of Cu2+-dependent DNA cleavage in pSP64 DNA assessed as form 2 DNA formation at 0.1 uM
Escherichia coli [4] = assay: Induction of Cu2+-dependent DNA cleavage in pSP64 DNA assessed as form 2 DNA formation at 5 uM
Escherichia coli [5] = assay: Induction of Cu2+-dependent DNA cleavage in pSP64 DNA assessed as form 2 DNA formation at 0.01 uM
Escherichia coli [6] = assay: Induction of Cu2+-dependent DNA cleavage in pSP64 DNA assessed as form 3 DNA formation

Activity (Escherichia coli [1]): 68%
Activity (Escherichia coli [2]): 92%
Activity (Escherichia coli [3]): 32%
Activity (Escherichia coli [4]): 88%
Activity (Escherichia coli [5]): 16%
Activity (Escherichia coli [6]): inactive
SMILES: CC1=CC(=O)O[C@H]1COC(=O)/C=C/c1ccc(O)c(O)c1
